Results on one molecule are retold here after publication PMC3871589, “Evaluation of STAT3 Signaling in ALDH+ and ALDH+/CD44+/CD24− Subpopulations of Breast Cancer Cells” (PLoS ONE, 2013).

Assay [1] deals with MDA-MB-231, SK-BR-3, and SUM159 breast cancer cell lines. The assay is described as follows: Apoptosis (cleaved PARP and Caspase-3) in un-separated breast cancer cells. Format: cell-based, human. Conditions: un-separated MDA-MB-231, SK-BR-3, SUM159 cells; 10 µM, 24 hours. As to the method: (§1) After sorting by flow cytometry, ALDH^+ and ALDH^+/CD44^+/CD24^− stem-like cells were cultured in serum-free stem cell medium in ultra-low attachment six-well plates (Corning) to maintain cancer stem cell characteristics. ALDH^−, ALDH^−/CD44^+/CD24^+cells and un-separated cells were cultured in regular medium and replaced with identical stem cell medium for three days before being harvested. To assess the effects of STAT3 inhibitors, ALDH^+ and ALDH^+/CD44^+/CD24^− subpopulations of breast cancer cells were treated with LLL12 (5 µmol/L) of or static (10 µmol/L) for 24 hours. STAT3, or control GFP shRNA lentivirus (CTL ShRNA) was introduced into ALDH^+ breast cancer stem-like cells for 48 hours, then followed by selection with puromycin (0.2 µg/ml) for 72 hours. Antibodies (Cell Signaling Tech.) against phospho-specific STAT3 (Tyrosine 705) (P-STAT3, Y705), ERK1/2 (Threonine 202/Tyrosine 204), cleaved Poly (ADP-ribose) polymerase (PARP), ALDH1, cleaved caspase-3, and GAPDH were used for western blots.
(§2) LLL12 was synthesized in Dr. Pui-Kai Li’s laboratory (College of Pharmacy, The Ohio State University). Un-separated cells were treated with 10 µM of LLL12 or DMSO for 24 hours, and the phosphorylation of STAT3 (Y705), and ERK 1/2 (T202/Y204), and expression of STAT3 downstream genes, cleaved caspase-3, and PARP were detected by Western blots. (JPG) Click here for additional data file.

Assay [2] relates to ERK 1/2 (T202/Y204) phosphorylation. The assay is described as follows: Western blot of ERK phosphorylation in un-separated breast cancer cells. It is filed as cell-based, human. Particulars: 10 µM, 24 hours. As to the method: as §1, §2
In general terms: A western blot detects proteins with antibodies after separation by electrophoresis.

The subject of assay [3] is ALDH+ subpopulation in MDA-MB-231, SUM159, and SK-BR3 cancer cells. The assay is described as follows: ALDEFLUOR assay, percentage of ALDH+ subpopulation. Conditions: un-separated MDA-MB-231, SUM159, SK-BR3; LLL12 5 µmol/L or Stattic 10 µM, 24 hours. It is filed as cell-based, human. The procedure: (§3) The ALDEFLUOR kit (StemCell Technologies) was used to isolate the population with high ALDH enzymatic activity as previously described. Briefly, cells were trypsinized to single cells using 0.05% trypsin and subsequently suspended in ALDEFLUOR assay buffer containing ALDH substrate (BAAA, 1 µmol/l per 1×10^6 cells) and then incubated for 40 minutes at 37°C. For each sample, an aliquot of cells was stained under identical conditions with 15 mmol/L diethylaminobenzaldehyde (DEAB), a specific ALDH inhibitor, as an ALDH^− control. Anti-human PE-CD24 and PE-Cy5-CD44 antibody (BioLegend) were used for CD44/CD24 identification and to separate ALDH^+/CD44^+/CD24^− and ALDH^−/CD44^+/CD24^+ cells when combined with ALDH staining. Analysis was performed using a FACStarPLUS (Becton Dickinion) flow cytometer. To assess the effect of STAT3 inhibitors on the subpopulation of ALDH^+ cells, un-separated breast cancer cells were treated with 5 µmol/L of LLL12 or 10 µmol/L Stattic for 24 hours prior to performing the ALDEFLUOR assay.

For another assay, the target named is PYK2 (Homo sapiens, UniProt Q14289). As to the kind of experiment: Kinase profiler assay, PYK2. Format: biochemical. Conditions: 10 concentrations, 100 µM highest; Table S3. As to the method:
(§4) The effects of LLL12 on twenty six purified human protein kinases were performed at the Millipore UK Limited (Dundee, UK) and Reaction Biology Corp. (Malvern, PA) using the Kinase profiler assay. Assays contained a peptide substrate, purified recombinant human protein kinases to be tested, and gamma-labeled ATP, magnesiumion. Radioactive phosphorylated product was measured and quantitated via a scintillation counter.

The target of a further assay is PDK1 (Homo sapiens, UniProt O15530). As to the kind of experiment: Kinase profiler assay, PDK1. Format: biochemical. Particulars: bound stated jointly for the other protein kinases; Table S3. As to the method:
as §4

For the next assay, the target named is c-Raf (Homo sapiens, UniProt P04049). As to the kind of experiment: Kinase profiler assay, c-Raf. Format: biochemical. Conditions: bound stated jointly for the other protein kinases; Table S3. The procedure:
as §4

Another assay deals with ErB2/HER2 (Homo sapiens, UniProt P04626). Particulars: read-out: IC50 on ErB2/HER2; bound stated jointly for the other protein kinases; Table S3. As to the method:
as §4

The target in another assay is AKT1 (Homo sapiens, UniProt P31749). As to the kind of experiment: Kinase profiler assay, AKT1. Conditions: bound stated jointly for the other protein kinases; Table S3. It is filed as biochemical. The procedure:
as §4

For the next assay, the target named is Fyn (Homo sapiens, UniProt P06241). As to the kind of experiment: Kinase profiler assay, Fyn. Conditions: 10 concentrations, 100 µM highest; Table S3. It is filed as biochemical. The procedure:
as §4

Assay [4] relates to ALDH+ subpopulation from MDA-MB-231, SUM159, and SK-BR3 cells. The assay is described as follows: MTT cell viability assay, ALDH+ subpopulation. It is filed as cell-based, human. Conditions: 1 to 10 µmol/L 72 hours, ShRNA 48 hours. As to the method:
The breast cancer cells were seeded in 96-well plates (3,000 cells/well) in triplicates in a serum-free mammary epithelial basal medium. The following day, cancer cells were treated with 1 to 10 µmol/L of LLL12 or Stattic for 72 hours, STAT3 ShRNA or control GFP shRNA lentivirus (CTL ShRNA) for 48 hours. MTT (Thiazolyl Blue Tetrazolium Bromide, Sigma-Aldrich) assay was used to determine the cell viability.
(Tetrazolium assays rely on reduction of a dye to a coloured formazan, in cell work by metabolically active cells.)

The subject of assay [5] is ALDH+ subpopulation of MDA-MB-231, SUM159, and SK-BR-3 cells. The assay is described as follows: Cleaved caspase-3 in ALDH+ cells. Format: cell-based, human. Particulars: LLL12 5 µmol/L 24 hours, ShRNA 48 hours then puromycin. The procedure: as §3
After sorting by flow cytometry, ALDH^+ and ALDH^+/CD44^+/CD24^− stem-like cells were cultured in serum-free stem cell medium in ultra-low attachment six-well plates (Corning) to maintain cancer stem cell characteristics. […]

The next assay addresses Syk (Homo sapiens, UniProt P43405). The assay is described as follows: Kinase profiler assay, Syk. It is filed as biochemical. Conditions: 10 concentrations, 100 µM highest; Table S3. The procedure: as §4
In a further assay the target is Met (Homo sapiens, UniProt P08581). The assay is described as follows: Kinase profiler assay, Met. It is filed as biochemical. Conditions: bound stated jointly for the other protein kinases; Table S3. The procedure: as §4
Met, sequence (P08581 25-1390): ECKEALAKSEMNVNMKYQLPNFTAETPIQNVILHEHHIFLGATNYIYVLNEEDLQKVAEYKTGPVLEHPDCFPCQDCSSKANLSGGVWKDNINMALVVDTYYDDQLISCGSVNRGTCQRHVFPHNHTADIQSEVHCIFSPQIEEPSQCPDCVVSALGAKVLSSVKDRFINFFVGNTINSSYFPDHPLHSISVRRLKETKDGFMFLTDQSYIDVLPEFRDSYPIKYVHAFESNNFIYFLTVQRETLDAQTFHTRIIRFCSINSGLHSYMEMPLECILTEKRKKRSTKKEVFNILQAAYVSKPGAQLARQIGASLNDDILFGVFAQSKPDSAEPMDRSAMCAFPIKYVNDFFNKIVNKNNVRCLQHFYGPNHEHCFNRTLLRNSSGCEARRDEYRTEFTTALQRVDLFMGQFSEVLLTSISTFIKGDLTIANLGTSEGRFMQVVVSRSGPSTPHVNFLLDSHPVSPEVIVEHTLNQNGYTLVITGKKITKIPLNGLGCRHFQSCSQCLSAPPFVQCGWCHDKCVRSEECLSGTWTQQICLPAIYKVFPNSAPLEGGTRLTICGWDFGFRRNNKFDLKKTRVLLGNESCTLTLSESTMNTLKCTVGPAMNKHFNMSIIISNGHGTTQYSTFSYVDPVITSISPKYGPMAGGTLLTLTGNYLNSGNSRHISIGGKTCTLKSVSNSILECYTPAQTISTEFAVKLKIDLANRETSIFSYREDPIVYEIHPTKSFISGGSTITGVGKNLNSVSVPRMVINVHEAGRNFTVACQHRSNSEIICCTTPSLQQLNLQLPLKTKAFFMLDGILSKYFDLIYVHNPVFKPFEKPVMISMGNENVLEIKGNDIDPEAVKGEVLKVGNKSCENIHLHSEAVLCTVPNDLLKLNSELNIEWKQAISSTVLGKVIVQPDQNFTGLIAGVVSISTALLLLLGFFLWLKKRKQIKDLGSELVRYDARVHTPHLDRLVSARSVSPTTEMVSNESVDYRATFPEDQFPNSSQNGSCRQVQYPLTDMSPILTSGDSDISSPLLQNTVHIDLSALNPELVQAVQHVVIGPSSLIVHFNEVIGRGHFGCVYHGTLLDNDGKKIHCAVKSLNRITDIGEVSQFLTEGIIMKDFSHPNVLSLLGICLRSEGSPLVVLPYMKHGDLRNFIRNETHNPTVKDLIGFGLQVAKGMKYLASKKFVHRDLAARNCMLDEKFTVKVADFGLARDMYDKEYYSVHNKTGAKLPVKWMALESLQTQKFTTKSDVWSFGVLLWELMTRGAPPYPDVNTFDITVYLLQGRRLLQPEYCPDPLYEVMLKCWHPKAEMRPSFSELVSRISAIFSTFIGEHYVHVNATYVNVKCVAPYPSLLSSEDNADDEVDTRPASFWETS
In a further assay the target is c-SRC (Homo sapiens, UniProt P12931). As to the kind of experiment: Kinase profiler assay, c-SRC. It is filed as biochemical. Conditions: 10 concentrations, 100 µM highest; Table S3. The procedure:
as §4

Assay [6] deals with ALDH+/CD44+/CD24− SUM-159 breast cancer stem-like cells. As to the kind of experiment: Mouse xenograft of SUM159 ALDH+/CD44+/CD24− cells. It is filed as in vivo, NOD/SCID mice. Conditions: 5 mg/kg IP daily; P<0.05. The procedure:
All animal studies were conducted in accordance with the principles and standard procedures approved by IACUC at the Research Institute at Nationwide Children’s Hospital and the University Committee on the Use and Care of Animals at the University of Michigan. ALDH^+ subpopulations of MDA-MB-231 and ALDH^+/CD44^+/CD24^− subpopulations of SUM-159 breast cancer cells (1×10^5) respectively were injected subcutaneous (s.c.) into the flank area of female Non-obese diabetic (NOD)/Severe combined immunodeficiency (SCID) mice which were purchased from Jackson Laboratory.

PYK2, sequence (Q14289 whole entry): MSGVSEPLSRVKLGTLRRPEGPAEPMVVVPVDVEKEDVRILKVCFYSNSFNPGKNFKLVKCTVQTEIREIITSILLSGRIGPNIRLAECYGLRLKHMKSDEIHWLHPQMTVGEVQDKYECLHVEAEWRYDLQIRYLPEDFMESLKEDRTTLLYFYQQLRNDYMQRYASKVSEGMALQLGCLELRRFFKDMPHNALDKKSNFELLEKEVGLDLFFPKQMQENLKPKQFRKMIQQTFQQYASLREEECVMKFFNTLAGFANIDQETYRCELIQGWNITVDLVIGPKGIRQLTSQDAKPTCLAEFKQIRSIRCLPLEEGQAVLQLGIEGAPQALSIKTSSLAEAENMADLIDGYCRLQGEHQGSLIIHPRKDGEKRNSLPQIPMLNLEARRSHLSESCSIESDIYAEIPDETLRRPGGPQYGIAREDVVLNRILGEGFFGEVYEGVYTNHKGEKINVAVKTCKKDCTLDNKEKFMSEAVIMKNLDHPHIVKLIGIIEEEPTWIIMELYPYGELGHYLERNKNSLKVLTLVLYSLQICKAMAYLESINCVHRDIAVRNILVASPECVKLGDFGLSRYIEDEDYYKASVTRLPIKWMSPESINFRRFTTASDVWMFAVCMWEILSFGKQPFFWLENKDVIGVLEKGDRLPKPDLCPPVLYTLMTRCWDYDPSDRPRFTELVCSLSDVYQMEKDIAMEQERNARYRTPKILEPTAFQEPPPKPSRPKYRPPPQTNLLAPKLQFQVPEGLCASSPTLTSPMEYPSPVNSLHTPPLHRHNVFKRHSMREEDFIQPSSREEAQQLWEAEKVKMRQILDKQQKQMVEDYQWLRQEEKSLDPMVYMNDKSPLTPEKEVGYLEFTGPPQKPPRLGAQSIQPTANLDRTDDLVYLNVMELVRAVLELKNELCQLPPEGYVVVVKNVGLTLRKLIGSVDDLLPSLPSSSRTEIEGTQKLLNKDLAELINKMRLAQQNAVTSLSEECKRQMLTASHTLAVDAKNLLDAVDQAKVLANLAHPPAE
PDK1, sequence (O15530 whole entry): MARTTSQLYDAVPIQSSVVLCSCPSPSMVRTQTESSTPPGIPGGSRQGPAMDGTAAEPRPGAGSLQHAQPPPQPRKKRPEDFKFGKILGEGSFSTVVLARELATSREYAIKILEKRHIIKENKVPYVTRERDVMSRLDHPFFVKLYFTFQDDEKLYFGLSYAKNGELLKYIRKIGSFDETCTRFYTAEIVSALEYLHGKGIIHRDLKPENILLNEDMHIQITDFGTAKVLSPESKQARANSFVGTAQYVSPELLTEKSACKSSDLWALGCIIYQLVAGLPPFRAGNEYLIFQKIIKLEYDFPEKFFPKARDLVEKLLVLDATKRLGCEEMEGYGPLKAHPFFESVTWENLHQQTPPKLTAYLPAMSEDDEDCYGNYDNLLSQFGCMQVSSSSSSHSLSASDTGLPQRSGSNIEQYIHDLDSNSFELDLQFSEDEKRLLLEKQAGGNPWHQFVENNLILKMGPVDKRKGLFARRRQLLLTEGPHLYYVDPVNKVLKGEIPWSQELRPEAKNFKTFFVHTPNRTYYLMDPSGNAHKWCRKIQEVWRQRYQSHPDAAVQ
AKT1, sequence (P31749 whole entry): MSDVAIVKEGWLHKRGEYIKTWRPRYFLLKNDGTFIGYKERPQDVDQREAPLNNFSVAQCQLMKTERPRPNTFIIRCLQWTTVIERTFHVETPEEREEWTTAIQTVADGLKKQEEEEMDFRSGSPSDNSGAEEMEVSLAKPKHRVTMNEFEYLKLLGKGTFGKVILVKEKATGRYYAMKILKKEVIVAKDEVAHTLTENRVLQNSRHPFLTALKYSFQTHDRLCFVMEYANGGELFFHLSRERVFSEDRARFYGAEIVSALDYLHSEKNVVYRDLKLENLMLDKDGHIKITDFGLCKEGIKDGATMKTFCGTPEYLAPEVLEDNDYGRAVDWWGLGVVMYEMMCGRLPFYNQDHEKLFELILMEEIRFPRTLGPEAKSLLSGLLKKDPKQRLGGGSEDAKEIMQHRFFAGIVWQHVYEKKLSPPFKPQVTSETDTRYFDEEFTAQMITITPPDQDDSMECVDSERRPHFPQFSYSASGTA
c-Raf, sequence (P04049 whole entry): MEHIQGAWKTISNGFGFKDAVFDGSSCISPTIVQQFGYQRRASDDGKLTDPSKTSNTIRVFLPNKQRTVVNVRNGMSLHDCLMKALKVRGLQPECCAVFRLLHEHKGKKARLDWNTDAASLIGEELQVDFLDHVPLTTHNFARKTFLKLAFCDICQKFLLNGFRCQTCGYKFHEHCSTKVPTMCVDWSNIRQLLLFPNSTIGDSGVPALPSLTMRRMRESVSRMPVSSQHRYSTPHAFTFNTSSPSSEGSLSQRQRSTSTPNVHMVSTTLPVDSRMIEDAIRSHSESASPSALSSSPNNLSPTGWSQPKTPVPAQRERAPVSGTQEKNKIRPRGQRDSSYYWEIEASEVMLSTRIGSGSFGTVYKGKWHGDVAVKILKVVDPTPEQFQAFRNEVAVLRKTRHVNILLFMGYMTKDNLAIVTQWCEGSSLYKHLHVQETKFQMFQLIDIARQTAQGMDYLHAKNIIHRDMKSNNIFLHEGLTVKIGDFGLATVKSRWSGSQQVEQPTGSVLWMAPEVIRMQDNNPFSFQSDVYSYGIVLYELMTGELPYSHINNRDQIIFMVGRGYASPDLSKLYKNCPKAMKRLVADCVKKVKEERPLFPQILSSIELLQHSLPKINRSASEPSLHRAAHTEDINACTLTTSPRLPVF
Fyn, sequence (P06241 whole entry): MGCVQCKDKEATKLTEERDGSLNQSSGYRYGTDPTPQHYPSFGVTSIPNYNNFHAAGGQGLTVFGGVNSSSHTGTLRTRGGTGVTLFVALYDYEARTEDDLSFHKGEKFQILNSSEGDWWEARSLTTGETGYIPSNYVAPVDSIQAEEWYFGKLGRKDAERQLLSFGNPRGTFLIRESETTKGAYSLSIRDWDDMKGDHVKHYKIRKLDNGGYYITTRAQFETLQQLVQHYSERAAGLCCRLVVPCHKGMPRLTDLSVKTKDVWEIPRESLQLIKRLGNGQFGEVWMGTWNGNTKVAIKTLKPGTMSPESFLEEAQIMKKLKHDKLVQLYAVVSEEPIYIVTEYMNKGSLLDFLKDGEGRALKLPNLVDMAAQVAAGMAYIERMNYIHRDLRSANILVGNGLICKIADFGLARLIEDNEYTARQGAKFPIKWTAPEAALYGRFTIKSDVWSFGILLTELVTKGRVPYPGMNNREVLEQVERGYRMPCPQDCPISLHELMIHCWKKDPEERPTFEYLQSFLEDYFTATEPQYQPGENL

Take `NS(=O)(=O)c1cccc2c1C(=O)c1cccc(O)c1C2=O` [LLL12]: the “apoptosis (cleaved PARP and Caspase-3)” value in [1] is on record as “induced apoptosis”. In addition, the “phosphorylation of ERK” value in [2] was “did not inhibit”. In assay [3], the “ALDH+ subpopulation (percentage)” value was “decrease”. The IC50 against PYK2 is over 100 µM; on PDK1, at least 77.9 µM; against c-Raf, at least 77.9 µM; on ErB2/HER2 it was at least 77.9 µM; at AKT1 it was at least 77.9 µM; against Fyn, over 100 µM. Moreover, the IC50 was over 100 µM on Syk, at least 77.9 µM on Met and over 100 µM at c-SRC. Further, the “cell viability of the ALDH+ subpopulation” value in [4] is recorded as “inhibit”. Moreover, in [5], the “cleaved caspase-3 in ALDH+ cells” value is “induced cleaved caspase-3”. In addition, the tumor volume entry in assay [6] is “significantly suppressed”.
